# System: Pyricularia oryzae
# Assay: whole plant or invertebrate
# Assay type: in vivo
# Conditions: 100 ppm spray, rice seedling (Jikkoku) 4-leaf stage, lesion number on fourth leaf 6 days after inoculation
row,Compound,"rank (control effect, protective value from lesion number)"
1,CCC(C)c1ccc2nc(C)c(C)c(OC(=O)c3ccc([N+](=O)[O-])cc3)c2c1 (stereo not drawn) [compound 171],B (protective value 50 to 79%)
2,CCC(C)c1ccc2nc(C)c(C)c(OC(=O)C3CCCCC3)c2c1 (stereo not drawn) [compound 170],A (protective value ≧80%)
3,CCc1cccc2nc(C)c(C)c(OC(C)=O)c12 [compound 182],B (protective value 50 to 79%)
4,CC(=O)Oc1c(C)c(C)nc2c(C(C)C)cc(C(C)C)cc12 [Compound No. 274],A (protective value ≧80%)
5,Cc1nc2c(F)cc(Br)cc2c(O)c1C [compound 193],A (protective value ≧80%)
6,CC=C(C)c1ccc2nc(C)c(C)c(O)c2c1 [compound 199],A (protective value ≧80%)
7,CCCCc1ccc2nc(C)c(CCCC)c(OC(C)=O)c2c1 [compound 46],A (protective value ≧80%)
8,CCC(C)c1ccc2nc(C)c(C)c(OC(=O)Oc3ccc(Cl)cc3)c2c1 (stereo not drawn) [compound 70],A (protective value ≧80%)
9,"CC(=O)Oc1c(C)c(C)nc2c(C)cc(C3CCCC3)cc12 [Compound No. 352, 4-Acetoxy-6-c-pentyl-8-methyl-2,3-dimethylquinoline]",A (protective value ≧80%)
10,CCCCc1ccc2nc(C)c(CC)c(OC(C)=O)c2c1 [compound 44],A (protective value ≧80%)
11,CC(=O)Oc1c(C)c(C)nc2ccc(C(C)(C)C)cc12 [compound 84],A (protective value ≧80%)
12,Cc1nc2ccc(C(C)(C)C)cc2c(O)c1C [compound 83],A (protective value ≧80%)
13,CCCCCCc1ccc2nc(C)c(C)c(OC(C)=O)c2c1 [Compound No. 108],A (protective value ≧80%)
14,CCCCc1ccc2nc(CCCC)c(C)c(OC(C)=O)c2c1 [compound 49],A (protective value ≧80%)
15,CCCCCCCC(=O)Oc1c(C)c(C)nc2ccc(C(C)CC)cc12 (stereo not drawn) [compound 180],A (protective value ≧80%)
16,Cc1cc2nc(C)c(C)c(O)c2cc1Br [compound 192],A (protective value ≧80%)
17,CCCCCCCCc1ccc2nc(C)c(C)c(OC(C)=O)c2c1 [Compound No. 126],A (protective value ≧80%)
18,Cc1nc2ccc(OC(C)C)cc2c(O)c1C [compound 23],B (protective value 50 to 79%)
19,Cc1nc2c(C)cc(Br)cc2c(O)c1C [compound 190],B (protective value 50 to 79%)
20,CCCCCCCCc1ccc2nc(C)c(C)c(O)c2c1 [Compound No. 125],B (protective value 50 to 79%)
21,CCCCOC(=O)Oc1c(C)c(C)nc2ccc(C(C)CC)cc12 (stereo not drawn) [compound 179],A (protective value ≧80%)

row,Compound,"rank (control effect, protective value from lesion number)"
1,CC(=O)Oc1c(C)c(C)nc2c(C)cc(F)cc12 [compound 198],B (protective value 50 to 79%)
2,Cc1nc2ccc(C3CCCCC3)cc2c(O)c1C [Compound No. 111],B (protective value 50 to 79%)
3,CCCCc1ccc2nc(CC)c(C)c(OC(C)=O)c2c1 [compound 47],A (protective value ≧80%)
4,CCC(C)c1ccc2nc(C)c(C)c(OC(=O)c3ccc(Cl)cc3)c2c1 (stereo not drawn) [compound 63],A (protective value ≧80%)
5,CCC(C)c1ccc2nc(C)c(C)c(OC(=O)c3ccc(OC)cc3)c2c1 (stereo not drawn) [compound 62],A (protective value ≧80%)
6,CCC(C)c1ccc2nc(C)c(C)c(OC(=O)C3CC3)c2c1 (stereo not drawn) [compound 57],A (protective value ≧80%)
7,Cc1nc2ccc(C(F)(F)F)cc2c(O)c1C [Compound No. 131],B (protective value 50 to 79%)
8,CC(=O)Oc1c(C)c(C)nc2c(C)cc(C)cc12 [Compound No. 262],B (protective value 50 to 79%)
9,CCc1ccc2c(OC(C)=O)c(C)c(C)nc2c1 [compound 183],B (protective value 50 to 79%)
10,CCCCc1ccc2nc(CCC)c(C)c(OC(C)=O)c2c1 [compound 48],A (protective value ≧80%)
11,CCCCCCc1ccc2nc(C)c(C)c(O)c2c1 [Compound No. 107],A (protective value ≧80%)
12,CC=C(C)c1ccc2nc(C)c(C)c(OC(C)=O)c2c1 [compound 200],A (protective value ≧80%)
13,CCCCCC(=O)Oc1c(C)c(C)nc2ccc(C(C)CC)cc12 (stereo not drawn) [compound 173],A (protective value ≧80%)
14,CCCc1ccc2nc(C)c(C)c(OC(C)=O)c2c1 [compound 14],A (protective value ≧80%)
15,Cc1nc2ccc(CC(C)C)cc2c(O)c1C [compound 92],B (protective value 50 to 79%)
16,CC(=O)Oc1c(C)c(C)nc2ccc(C)cc12 [Compound No. 2],B (protective value 50 to 79%)
17,Cc1nc2ccc(Br)c(C)c2c(O)c1C [compound 191],A (protective value ≧80%)
18,CCc1ccc2nc(C)c(C)c(O)c2c1 [Compound No. 9],A (protective value ≧80%)
19,CCCCc1cc(Br)c2nc(C)c(C)c(O)c2c1 [compound 186],B (protective value 50 to 79%)
20,CCC(C)c1ccc2nc(C)c(C)c(OC(=O)Cc3ccccc3)c2c1 (stereo not drawn) [compound 172],A (protective value ≧80%)

# Same assay, conditions: Pyricularia oryzae, foliar, 144 h, read-out: rank (control effect, protective value from lesion number)
row,Compound,pest or weed control at 100 ppm [%]
1,"CCCCCc1ccc2nc(C)c(C)c(OC(C)=O)c2c1 [Compound No. 98, 4-acetoxy-2,3-dimethyl-6-n-pentyl-quinoline]",> 80
2,"CCC(C)c1cc(OC)c2nc(C)c(C)c(OC(C)=O)c2c1 (stereo not drawn) [Compound No. 220, 4-acetoxy-6-s-butyl-8-methoxy-2,3-dimethylquinoline]",> 80
3,"CCCCCc1ccc2nc(C)c(C)c(O)c2c1 [Compound No. 97, 4-hydroxy-2,3-dimethyl-6-n-pentyl-quinoline]",50 to 79
4,"CCC(C)c1cc(F)c2nc(C)c(C)c(OC(C)=O)c2c1 (stereo not drawn) [Compound No. 212, 4-acetoxy-6-s-butyl-8-fluoro-2,3-dimethylquinoline]",> 80
5,"CCC(C)c1cc(C)c2nc(C)c(C)c(OC(C)=O)c2c1 (stereo not drawn) [Compound No. 206, 4-acetoxy-6-s-butyl-2,3,8-trimethylquinoline]",> 80
6,"CC=C(C)c1cc(C)c2nc(C)c(C)c(OC(C)=O)c2c1 [Compound No. 360, 4-acetoxy-6-(2-buten-2-yl)-2,3,8-trimethylquinoline]",> 80
7,"CC=C(C)c1cc(F)c2nc(C)c(C)c(OC(C)=O)c2c1 [Compound No. 362, 4-acetoxy-6-(2-buten-2-yl)-8-fluoro-2,3-dimethylquinoline]",> 80

# Source: patent publication US6680282B2 (priority 1997, dated 2004)
